Results: ChEMBL document CHEMBL6121046, “Discovery of Novel Hydrazide-Based HDAC3 Inhibitors as Epigenetic Immunomodulators for Cancer Immunotherapy” (J Med Chem, 2025)
The source made the active and inactive calls. No cut-off for these calls is given here.

Experiments:
[1] = AUC (0 to infinity) in Sprague-Dawley rat at 20 mg/kg, iv measured upto 12 hrs by LC-MS/MS analysis; format: ADME, organism-based; conditions: in vivo
[2] = MRT (0 to infinity) in Sprague-Dawley rat at 20 mg/kg, po measured upto 12 hrs by LC-MS/MS analysis; format: ADME, organism-based; conditions: in vivo
MC-38 [3] = test: In vivo antitumor activity against mouse MC38 cells allografted in C57BL/6 mouse assessed as apoptosis in tumor in presence of NP19 PD-L1 inhibitor at 50 mg/kg, po treated 5 days after cell inoculation 19 th day relative to control; format: functional, organism-based; conditions: time 15.0 day
MC-38 [4] = test: Induction of ROS production in mouse MC38 cells assessed as increase in intracellular ROS level measured after 48 hrs by DCFH-DA/Brightfield - fluorescence imaging analysis; format: functional, cell-based
MC-38 [5] = test: Induction of mitochondrial membrane damage in mouse MC38 cells assessed as increase in JC-1 monomers by measuring green fluorescence at 4 uM measured after 48 hrs (reference value: 3.13%); format: functional
Mus musculus = test: Induction of PD-L1 expression in tumor in C57BL/6 mouse allografted with mouse MC38 cells in presence of NP19 PD-L1 inhibitor at 50 mg/kg, po treated 5 days after cell inoculation 19 th day by immunofluorescence analysis; format: functional, organism-based; conditions: time 15.0 day
MC-38 [6] = test: In vivo antitumor activity against mouse MC38 cells allografted in C57BL/6 mouse assessed as tumor growth inhibition at 50 mg/kg, po treated 5 days after cell inoculation 19 th day relative to control; format: functional; conditions: MC-38, 360 h, time 15 day, read-out: TGI
MC-38 [7] = test: Induction of PD-L1 expression in mouse MC38 cells in presence of JQ-1 BRD4 inhibitor at 4 uM measured after 24 hrs incubation by Western blot analysis; format: functional, cell-based
MC-38 [8] = test: In vivo antitumor activity against mouse MC38 cells allografted in C57BL/6 mouse assessed as increase in Tunel-positive cells in tumor in presence of NP19 PD-L1 inhibitor at 50 mg/kg, po treated 5 days after cell inoculation 19 th day by immunofluorescence analysis; format: functional, organism-based; conditions: time 15.0 day
[9] = AUC (0 to t) in Sprague-Dawley rat at 20 mg/kg, po measured upto 12 hrs by LC-MS/MS analysis; format: ADME, organism-based; conditions: in vivo

CCCNNC(=O)c1ccc(CNC(=O)c2cnc(-c3ccc4occc4c3)[nH]2)cc1
AUC [1]: 1249.2 ng·h/mL
MRT inf [2]: 4.33 h
Activity (MC-38 [3]): Active
Activity (MC-38 [4]): Dose-dependent-effect
Activity (MC-38 [5]): 27.53%
Activity (Mus musculus): Active
inhibition in vivo at 50 mg/kg (MC-38 [6]): 63%
Activity (MC-38 [7]): Active
Activity (MC-38 [8]): Active
AUC(0-t) at 12 h [9]: 1420 ng·h/mL
